Experimental data published in the NIST ThermoML archive (doi:10.1016/j.jct.2011.09.011).
Numbers after ± are expanded uncertainties.

Test: excess molar enthalpy (molar enthalpy of mixing); xn = mol fraction of the nth substance listed
Settings: 101 kPa, Liquid, Parr 1455 solution calorimeter

CCCCCCCCCCO [decan-1-ol] + CC#N
Settings | excess molar enthalpy [kcal/mol]
298.15 K, x1 = 0.0436 | 0.171 ± 0.00789
298.15 K, x1 = 0.0542 | 0.206 ± 0.00908
298.15 K, x1 = 0.0678 | 0.248 ± 0.0105
298.15 K, x1 = 0.079 | 0.279 ± 0.0117
298.15 K, x1 = 0.0919 | 0.313 ± 0.0131
298.15 K, x1 = 0.1077 | 0.351 ± 0.0146
298.15 K, x1 = 0.127 | 0.393 ± 0.0163
298.15 K, x1 = 0.1509 | 0.44 ± 0.0179
298.15 K, x1 = 0.181 | 0.491 ± 0.0201
298.15 K, x1 = 0.2197 | 0.546 ± 0.0222
298.15 K, x1 = 0.271 | 0.607 ± 0.0239
298.15 K, x1 = 0.3415 | 0.671 ± 0.0263
298.15 K, x1 = 0.3857 | 0.699 ± 0.0287
298.15 K, x1 = 0.4394 | 0.72 ± 0.0287
298.15 K, x1 = 0.5058 | 0.724 ± 0.0287
298.15 K, x1 = 0.5895 | 0.694 ± 0.0287
298.15 K, x1 = 0.6985 | 0.596 ± 0.0239
298.15 K, x1 = 0.78 | 0.482 ± 0.0198
298.15 K, x1 = 0.8433 | 0.372 ± 0.0153
298.15 K, x1 = 0.9159 | 0.222 ± 0.00932
303.15 K, x1 = 0.0586 | 0.245 ± 0.0103
303.15 K, x1 = 0.0678 | 0.274 ± 0.0115
303.15 K, x1 = 0.079 | 0.306 ± 0.0129
303.15 K, x1 = 0.0919 | 0.342 ± 0.0141
303.15 K, x1 = 0.1077 | 0.38 ± 0.0155
303.15 K, x1 = 0.127 | 0.419 ± 0.0172
303.15 K, x1 = 0.1509 | 0.462 ± 0.0189
303.15 K, x1 = 0.181 | 0.506 ± 0.0206
303.15 K, x1 = 0.2197 | 0.559 ± 0.0227
303.15 K, x1 = 0.271 | 0.622 ± 0.0263
303.15 K, x1 = 0.3415 | 0.689 ± 0.0287
303.15 K, x1 = 0.3857 | 0.713 ± 0.0287
303.15 K, x1 = 0.4394 | 0.732 ± 0.0287
303.15 K, x1 = 0.5058 | 0.736 ± 0.0287
303.15 K, x1 = 0.5895 | 0.711 ± 0.0287
303.15 K, x1 = 0.6985 | 0.628 ± 0.0263
303.15 K, x1 = 0.78 | 0.512 ± 0.0208
303.15 K, x1 = 0.8433 | 0.396 ± 0.0163
303.15 K, x1 = 0.9159 | 0.243 ± 0.01
308.15 K, x1 = 0.0748 | 0.279 ± 0.0117
308.15 K, x1 = 0.1008 | 0.347 ± 0.0143
308.15 K, x1 = 0.1409 | 0.437 ± 0.0179
308.15 K, x1 = 0.1866 | 0.524 ± 0.0215
308.15 K, x1 = 0.2546 | 0.637 ± 0.0263
308.15 K, x1 = 0.3186 | 0.714 ± 0.0287
308.15 K, x1 = 0.4096 | 0.794 ± 0.0335
308.15 K, x1 = 0.4314 | 0.796 ± 0.0335
308.15 K, x1 = 0.455 | 0.794 ± 0.0335
308.15 K, x1 = 0.4807 | 0.788 ± 0.0311
308.15 K, x1 = 0.5088 | 0.78 ± 0.0311
308.15 K, x1 = 0.5395 | 0.767 ± 0.0311
308.15 K, x1 = 0.5734 | 0.75 ± 0.0311
308.15 K, x1 = 0.6109 | 0.724 ± 0.0287
308.15 K, x1 = 0.6525 | 0.686 ± 0.0287
308.15 K, x1 = 0.6991 | 0.636 ± 0.0263
308.15 K, x1 = 0.7515 | 0.567 ± 0.0232
308.15 K, x1 = 0.8108 | 0.471 ± 0.0194
308.15 K, x1 = 0.8785 | 0.336 ± 0.0139
308.15 K, x1 = 0.9566 | 0.142 ± 0.00621

CCCCCCCCCO [nonan-1-ol] + CC#N
excess molar enthalpy [kcal/mol]
Settings | 298.15 K | 303.15 K | 308.15 K
x1 = 0.0899 | 0.254 ± 0.0108 | 0.297 ± 0.0124 | 0.307 ± 0.0127
x1 = 0.1141 | 0.303 ± 0.0127 | 0.35 ± 0.0143 | 0.364 ± 0.0151
x1 = 0.1501 | 0.365 ± 0.0151 | 0.42 ± 0.0172 | 0.441 ± 0.0182
x1 = 0.1975 | 0.433 ± 0.0179 | 0.5 ± 0.0206 | 0.525 ± 0.0215
x1 = 0.2673 | 0.515 ± 0.0213 | 0.593 ± 0.0239 | 0.627 ± 0.0263
x1 = 0.3318 | 0.573 ± 0.0237 | 0.65 ± 0.0263 | 0.689 ± 0.0287
x1 = 0.4217 | 0.626 ± 0.0263 | 0.708 ± 0.0287 | 0.745 ± 0.0311
x1 = 0.443 | 0.632 ± 0.0263 | 0.71 ± 0.0287 | 0.742 ± 0.0311
x1 = 0.4659 | 0.636 ± 0.0263 | 0.709 ± 0.0287 | 0.738 ± 0.0311
x1 = 0.4906 | 0.639 ± 0.0263 | 0.706 ± 0.0287 | 0.73 ± 0.0287
x1 = 0.5175 | 0.637 ± 0.0263 | 0.701 ± 0.0287 | 0.72 ± 0.0287
x1 = 0.5468 | 0.631 ± 0.0263 | 0.69 ± 0.0287 | 0.705 ± 0.0287
x1 = 0.5787 | 0.619 ± 0.0263 | 0.672 ± 0.0263 | 0.685 ± 0.0287
x1 = 0.6138 | 0.601 ± 0.0239 | 0.647 ± 0.0263 | 0.659 ± 0.0263
x1 = 0.6524 | 0.573 ± 0.0234 | 0.616 ± 0.0239 | 0.625 ± 0.0263
x1 = 0.695 | 0.534 ± 0.0217 | 0.573 ± 0.0234 | 0.583 ± 0.0237
x1 = 0.7425 | 0.482 ± 0.0196 | 0.515 ± 0.021 | 0.529 ± 0.0215
x1 = 0.7955 | 0.414 ± 0.017 | 0.436 ± 0.0179 | 0.455 ± 0.0186
x1 = 0.8552 | 0.323 ± 0.0134 | 0.341 ± 0.0141 | 0.355 ± 0.0146
x1 = 0.9228 | 0.197 ± 0.00837 | 0.21 ± 0.00884 | 0.216 ± 0.00908
